This is an account of results in ChEMBL document CHEMBL1131749, “Landomycin A inhibits DNA synthesis and G1/S cell cycle progression” (1999).

Common to all, as to assay type: functional
The species named for experiment [1] is Mus musculus. Kind of experiment: Inhibition of uptake of [3H]thymidine into DNA by murine smooth cells at a concentration of 200 nM after 16 hours.
The species named for experiment [2] is Mus musculus. Put plainly: Inhibition of uptake of [3H]thymidine into DNA by murine smooth cells at a concentration of 20 nM after 16 hours.
For experiment [3], the species on record is Mus musculus. Put plainly: Inhibition of uptake of [3H]-thymidine into DNA by murine smooth cells at a concentration of 80 nM after 20 hours.
The species entered for experiment [4] is Mus musculus. Kind of experiment: Inhibition of uptake of [3H]thymidine into DNA by murine smooth cells at a concentration of 20 nM after 24 hours.
For experiment [5], the species on record is Mus musculus. Put plainly: Inhibition of uptake of [3H]thymidine into DNA by murine smooth cells at a concentration of 20 nM after 20 hours.
The species entered for experiment [6] is Mus musculus. Put plainly: Inhibition of uptake of [3H]thymidine into DNA by murine smooth cells at a concentration of 200 nM after 24 hours.
The species entered for experiment [7] is Mus musculus. Kind of experiment: Inhibition of uptake of [3H]thymidine into DNA by murine smooth cells at a concentration of 200 nM after 20 hours.
For experiment [8], the species on record is Mus musculus. Kind of experiment: Inhibition of uptake of [3H]thymidine into DNA by murine smooth cells at a concentration of 80 nM after 24 hours.
The species entered for experiment [9] is Mus musculus. Kind of experiment: Inhibition of uptake of [3H]thymidine into DNA by murine smooth cells at a concentration of 80 nM after 16 hours.

For the molecule `Cc1cc(O)c2c(c1)C[C@@H](O)C1=C2C(=O)c2c(O)ccc(O[C@H]3C[C@@H](O)[C@H](O[C@H]4C[C@@H](O[C@H]5CC[C@H](O[C@H]6C[C@@H](O)[C@H](O[C@H]7C[C@@H](O[C@H]8CC[C@H](O)[C@H](C)O8)[C@H](O)[C@@H](C)O7)[C@@H](C)O6)[C@H](C)O5)[C@H](O)[C@@H](C)O4)[C@@H](C)O3)c2C1=O` [LANDOMYCIN A], the Inhibition is reported as 0 c.p.m./Abs in experiment [1]; 10000 c.p.m./Abs in experiment [2]; 30000 c.p.m./Abs in [3]; 65000 c.p.m./Abs in [4]; 45000 c.p.m./Abs in [5]; 20000 c.p.m./Abs in [6]. Moreover, the values for the Inhibition in experiment [7], in [8] and in experiment [9] were 5000 c.p.m./Abs, 60000 c.p.m./Abs and 5000 c.p.m./Abs, respectively.
